Laboratory results published in US20240261225A1, “FORMIC ACID AS PROCESSING AID IN SPRAY DRYING FOR BASIC DRUGS” (Lonza Bend Inc., priority 2021, published 2024).
Values after ≈ are worked out from the molar mass of the structure shown.

Columns and labels:
[1] = Gefitinib solubility in methanol and methanol:water mixtures (saturated solutions, HPLC); type: physicochemical; conditions: 20° C.; for Solubility without formic acid: calculated based on densities at RT
Procedure: Crystalline gefitinib was added in excess to methanol and methanol:water mixtures to form saturated solutions at 20° C. After 24 hour of stirring, 1 mL aliquots were centrifuged at 10'000 RCF for 3 min. The supernatant was then analyzed for gefitinib concentration by HPLC.

[2] = physchem; conditions: 21 °C, organic solvent or mixture, thermodynamic from solid, Solubility with formic acid
Procedure: The solubility of gefitinib in solvent mixtures with 98% formic acid were obtained by suspending at RT 300 mg of crystalline gefitinib in 5 mL of solvent containing 100 microliters of formic acid at 21° C. (4.0 eq of formic acid). Both solutions were visually clear solutions at 60 mg/mL.
5 ml of a mixture of 4.9 ml of 90:10 methanol/water w/w with 0.1 ml HCOOH weigh 4.122 g based on the densities at RT as stated below.
5 ml of a mixture of 4.9 ml 80:20 methanol:water w/w with 0.1 ml HCOOH weigh 4.212 g based on the densities at RT as stated below.
The solution in the mixture of 4.9 ml of 90:10 MeOH:H2O w/w with 0.1 ml HCOOH was a visually clear solution at 72.8 mg/g based on the densities at RT as stated below.
The solution in the mixture of 4.9 ml of 80:20 MeOH:H2O w/w with 0.1 ml HCOOH was a visually clear solution at 71.2 mg/g based on the densities at RT as stated below.
[Solubility with formic acid]/[Solubility without formic acid]

[3] = physchem; conditions: 25 °C, organic solvent or mixture
[4] = according to go.drugbank.com; cited from earlier work
[5] = Nilotinib solubilities without and with formic acid; conditions: for Solubility with formic acid: 4.0 molar equivalents of formic acid

Compound	Solubility without formic acid ([1]; MeOH:H2O 80:20 (w/w)) [mg/g]	Solubility without formic acid ([1]; MeOH:H2O 90:10 (w/w)) [mg/g]	Solubility without formic acid ([1]; MeOH:H2O 100:0 (w/w)) [mg/g]	solubility at 24 h ([1]; methanol, organic solvent or mixture, thermodynamic from solid, MeOH:H2O 100:0 (w/w), read-out: Solubility without formic acid) [µg/mL]	solubility [2] [µg/mL]	solubility ([3]; methanol) [µg/mL]	solubility ([3]; methanol:water 90:10 (w/w)) [µg/mL]	basic pKa [4]	Solubility with formic acid ([5]; MeOH:H2O 80:20 (w/w), 25° C.) [µg/mL]	Solubility without formic acid ([5]; MeOH:H2O 80:20 (w/w), 25° C.) [µg/mL]	Solubility with formic acid ([5]; MeOH:H2O 90:10 (w/w), 25° C.) [µg/mL]	Solubility with formic acid ([5]; MeOH:H2O 100:0 (w/w), 25° C.) [µg/mL]	effect of addition of formic acid on solubility over the solubility in MeOH ([5]; formic acid with and without the presence of water)
COc1cc2ncnc(Nc3ccc(F)c(Cl)c3)c2cc1OCCCN1CCOCC1 [gefitinib]	7.6	7.4	8.8	7000 (≈ 15.7 mM)	≥ 60000	–	–	–	–	–	–	–	–
Cc1cn(-c2cc(NC(=O)c3ccc(C)c(Nc4nccc(-c5cccnc5)n4)c3)cc(C(F)(F)F)c2)cn1 [nilotinib]	–	–	–	–	–	2900 (≈ 5.48 mM)	2000 (≈ 3.78 mM)	5.92	8200	1000 (≈ 1.89 mM)	8200	7900	increase of solubility
